Test results: patent publication US8013011B2, “Treatment and prevention of benign pigmented moles (naevi) using artemisinine and the derivatives thereof” (EPIPHARM GmbH, priority 2005, dated 2011)

Experiment: Skin tolerability observed during the topical treatments
Type: in vivo, human
Settings: described topical treatments
Source text: A low-risk, non-invasive preventative or therapeutic treatment of acquired nevus cell nevi or of acquired or congenital nevus cell nevi (=birthmarks) with artemisinine and derivatives thereof (dihydroartemisinine, arteether, arthemeter, artesunate semisynthetic derivatives thereof and synthetically analogous compounds) represents enormous progress in the treatment of nevus cell nevi and could drastically reduce the risk of skin cancer. The invention is thus of great significance not only medically but also socioeconomically. […] It is also remarkable that healthy tissue is not damaged and the treatment is painless and simple.

C[C@H]1[C@H](OC(=O)CCC(=O)O)O[C@@H]2O[C@@]3(C)CC[C@H]4[C@H](C)CC[C@@H]1[C@@]24OO3 [artesunate]
allergic skin reactions: No allergic skin reactions
